Source: PubChem BioAssay AID1918956 (Molecular Pharmacology Branch, DTP, NCI, 2023)
Values joined by “and” are separate entries in the source; they are usually repeats but may differ in a detail not shown here. Equal entries are not always repeated.

Test system: OVCAR-5 complex spheroids, viability
Assay: Anticancer human tumor OVCAR-5 cell line growth inhibition;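 further: spheroids exposed to agents for seven days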;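 on viability, T/C: 100% = DMSO vehicle control wells viability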
Details: for viability, T/C: stronger effect = lower value
Method in brief: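 Multicellular complex spheroids of tumor cells with human endothelial cells (HUVEC) and mesenchymal stem cells; the LSD1 inhibitor iadademstat was combined with standard-of-care or investigational agents. Top concentration at or near clinical Cmax, half-log dilutions; final DMSO ≤0.25%.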

[1] = curve of first compound, second compound 0.1 µM
[2] = curve of first compound, second compound 0.316 µM
[3] = curve of first compound, second compound 1 µM
[4] = curve of first compound, second compound 3.16 µM
[5] = curve of first compound, second compound 10 µM
[6] = second compound 0.1 µM, first compound 0.0316 µM
[7] = second compound 0.1 µM, first compound 0.1 µM
[8] = second compound 0.316 µM, first compound 0.0316 µM
[9] = second compound 0.316 µM, first compound 0.1 µM
[10] = second compound 1 µM, first compound 0.0316 µM
[11] = second compound 1 µM, first compound 0.1 µM
[12] = second compound 3.16 µM, first compound 0.0316 µM
[13] = second compound 3.16 µM, first compound 0.1 µM
[14] = second compound 10 µM, first compound 0.0316 µM
[15] = second compound 10 µM, first compound 0.1 µM

Cn1ncnc1C1c2n[nH]c(=O)c3cc(F)cc(c23)NC1c1ccc(F)cc1 (centres undefined) + NC1CC1c1ccc(-c2cccc(O)c2)cc1
IC50 [1]: > 0.1 µM | IC50 [2]: > 0.1 µM | IC50 [3]: > 0.1 µM | IC50 [4]: > 0.1 µM | IC50 [5]: > 0.1 µM | viability, T/C (second compound 0.1 µM, first compound 0.000316 µM): 101% | viability, T/C (second compound 0.1 µM, first compound 0.001 µM): 94.1% | viability, T/C (second compound 0.1 µM, first compound 0.00316 µM): 85.4% | viability, T/C (second compound 0.1 µM, first compound 0.01 µM): 95.3% | viability, T/C [6]: 83.2% | viability, T/C [7]: 77.8% | viability, T/C (second compound 0.316 µM, first compound 0.000316 µM): 94.6% | viability, T/C (second compound 0.316 µM, first compound 0.001 µM): 99.3% | viability, T/C (second compound 0.316 µM, first compound 0.00316 µM): 95.1% | viability, T/C (second compound 0.316 µM, first compound 0.01 µM): 89.9% | viability, T/C [8]: 93% | viability, T/C [9]: 91.9% | viability, T/C (second compound 1 µM, first compound 0.000316 µM): 81.3% | viability, T/C (second compound 1 µM, first compound 0.001 µM): 91.4% | viability, T/C (second compound 1 µM, first compound 0.00316 µM): 89.7% | viability, T/C (second compound 1 µM, first compound 0.01 µM): 79.5% | viability, T/C [10]: 92.8% | viability, T/C [11]: 85.6% | viability, T/C (second compound 3.16 µM, first compound 0.000316 µM): 88.4% | viability, T/C (second compound 3.16 µM, first compound 0.001 µM): 94.2% | viability, T/C (second compound 3.16 µM, first compound 0.00316 µM): 88.1% | viability, T/C (second compound 3.16 µM, first compound 0.01 µM): 81.9% | viability, T/C [12]: 74.3% | viability, T/C [13]: 73.2% | viability, T/C (second compound 10 µM, first compound 0.000316 µM): 82.6% | viability, T/C (second compound 10 µM, first compound 0.001 µM): 96.6% | viability, T/C (second compound 10 µM, first compound 0.00316 µM): 85.5% | viability, T/C (second compound 10 µM, first compound 0.01 µM): 78.2% | viability, T/C [14]: 72.6% | viability, T/C [15]: 80.3%

CCN(c1cc(-c2ccc(CN3CCOCC3)cc2)cc(C(=O)NCc2c(C)cc(C)[nH]c2=O)c1C)C1CCOCC1
viability, T/C (compound 0.00949 µM): 101% and 110% | viability, T/C (compound 0.03 µM): 102% and 107% | viability, T/C (compound 0.0949 µM): 104% and 103% | viability, T/C (compound 0.3 µM): 102% and 97.2% | viability, T/C (compound 0.949 µM): 98.4% and 103% | viability, T/C (compound 3 µM): 100% and 109% | IC50 (curve of compound): > 3 µM

CC1(C)CCC(CN2CCN(c3ccc(C(=O)NS(=O)(=O)c4ccc(NCC5CCOCC5)c([N+](=O)[O-])c4)c(Oc4cnc5[nH]ccc5c4)c3)CC2)=C(c2ccc(Cl)cc2)C1 + NC1CCC(NC2CC2c2ccccc2)CC1
IC50 [1]: 7.15 µM | IC50 [2]: 7.06 µM | IC50 [3]: 6.81 µM | IC50 [4]: 6.3 µM | IC50 [5]: 5.48 µM | viability, T/C [6]: 116% | viability, T/C [7]: 97.5% | viability, T/C (second compound 0.1 µM, first compound 0.316 µM): 105% | viability, T/C (second compound 0.1 µM, first compound 1 µM): 98.9% | viability, T/C (second compound 0.1 µM, first compound 3.16 µM): 111% | viability, T/C (second compound 0.1 µM, first compound 10 µM): 27.1% | viability, T/C [8]: 108% | viability, T/C [9]: 97.6% | viability, T/C (second compound 0.316 µM, first compound 0.316 µM): 98.4% | viability, T/C (second compound 0.316 µM, first compound 1 µM): 108% | viability, T/C (second compound 0.316 µM, first compound 3.16 µM): 111% | viability, T/C (second compound 0.316 µM, first compound 10 µM): 26.2% | viability, T/C [10]: 97.6% | viability, T/C [11]: 91.5% | viability, T/C (second compound 1 µM, first compound 0.316 µM): 92.3% | viability, T/C (second compound 1 µM, first compound 1 µM): 101% | viability, T/C (second compound 1 µM, first compound 3.16 µM): 96.1% | viability, T/C (second compound 1 µM, first compound 10 µM): 27% | viability, T/C [12]: 99.9% | viability, T/C [13]: 106% | viability, T/C (second compound 3.16 µM, first compound 0.316 µM): 105% | viability, T/C (second compound 3.16 µM, first compound 1 µM): 104% | viability, T/C (second compound 3.16 µM, first compound 3.16 µM): 88.8% | viability, T/C (second compound 3.16 µM, first compound 10 µM): 23.8% | viability, T/C [14]: 90.7% | viability, T/C [15]: 93.3% | viability, T/C (second compound 10 µM, first compound 0.316 µM): 78.4% | viability, T/C (second compound 10 µM, first compound 1 µM): 91.7% | viability, T/C (second compound 10 µM, first compound 3.16 µM): 72.8% | viability, T/C (second compound 10 µM, first compound 10 µM): 24.9%

CC[C@@]1(O)C(=O)OCc2c1cc1n(c2=O)Cc2cc3c(CN(C)C)c(O)ccc3nc2-1
viability, T/C (compound 0.000316 µM): 102% and 99% | viability, T/C (compound 0.001 µM): 93% and 93.4% | viability, T/C (compound 0.00316 µM): 57% and 47.1% | viability, T/C (compound 0.01 µM): 46.6% and 31.7% | viability, T/C (compound 0.0316 µM): 47.1% and 34.3% | viability, T/C (compound 0.1 µM): 24% and 18.9% | IC50 (curve of compound): 0.00881 µM and 0.00298 µM
